Reference: patent EP3597650B1, “ALDOSE REDUCTASE INHIBITORS AND USES THEREOF” (The Trustees of Columbia University in the City of New York, priority 2010, dated 2012)

Columns and labels:
[1] = Solubility in Krebs-Henseleit buffer; format: physicochemical; settings: Krebs-Henseleit buffer with glucose, palmitate, bovine serum albumin, insulin
[2] = Solubility in water, LC-MS absorbance peak area at 254 nm; format: physicochemical; settings: for Area (Integration of Absorbance Peaks): water pH 7.1, ambient temperature, 254 nm
Method: Each sample of Compound A & zopolrestat were placed, separately, in water (MQW ultra nanopure) at ambient temperature and vortexed for 3 minutes. The aliquots were then filtered through a tightly-packed cotton plug (placed in a pipette) to remove any residual solids. The attempted concentrations of the respective solutions of Compound A and zopolrestat made were 0.05 mg/mL, 0.1 mg/mL, 0.5 mg/mL, 1.0 mg/mL, 5.0 mg/mL, and 10.0 mg/mL. The pH of the water used was 7.1 (measured electronically by an Orion perpHect LogR Meter Model # 370).
The filtered samples were run through a binary gradient (program: 5%-100% MeCN over 30 mins) on a LC-MS (Shimadzu LCMS-2010A Liquid Chromatography Mass Spectrometer, reverse-phase column). A 5 µL volume of each sample solution was injected for each run. Each trace contained a peak (for Compound A, TR approx. 14.070 mins; for zopolrestat, TR approx. 16.666 mins) measured at a wavelength of 254 nm for which the respective parent ion masses were observed.
By comparing the absorbance areas under the peaks corresponding to Compound A & zopolrestat in each water solution made (Table 1), a solubility curve for each compound was generated (Fig. 1). […] Table 1. Integration of Absorbance Peaks for Various Concentrations of Compounds.

[3] = target: human recombinant aldose reductase (Homo sapiens, UniProt P15121); test: biochemical
Method: The rcductasc activity of Compound A and zopolrestat were spectrophotometrically assayed by following the decrease of NADPH at 25°C for 4 min as described in Sato, S. (1992), "Rat kidney aldose reductase and aldehyde reductase and polyolproduction in rat kidney" Am. J. Physiol. 263, F799.F805, incorporated by reference herein in its entirety. [drawing 59]
Briefly, the reaction mixture (total volume 1 ml) contained 0.1 mM NADPH, 100 mM substrate (DL-glyceraldehyde or L-xylose) and human recombinant aldose reductase (100 mU) in 0.1 M phosphate buffer, pH 6.2. The head to head experiment was carried out in a microplate assay for AR inhibition using D-Glyceraldehyde and NADPH and the absorbance changes were monitored at 340nm and % inhibition was calculated for ARIs at concentrations ranging from 0.1 nM to 100 µM (Table 2 and Figure 2). Data is presented as mean ± standard deviation and is an average of 5 separate runs. The reaction was started by adding the substrate (glyceraldehyde or xylose) as well as the same reaction mixture in which the substrate replaced by deionized water was used as a control. One enzyme unit (U) was defined as the activity consuming 1 µmole of NADPH per min at 25 °C. Table 2. Aldose Reductase Activity for Zopolrestat and Compound A.

[4] = tested on: isolated rat heart; test: Ex vivo isovolumic isolated rat heart, ischemia reperfusion (I/R) injury; settings: 100 nM in perfusate; 20 min zero-flow ischemia, 60 min reperfusion
Method: Experiments were performed using an isovolumic isolated rat heart preparation as as described by Hwang YC, Sato S, Tsai JY, Yan S, Bakr S, Zhang H, Oates PJ , Ramasamy R (2002), "Aldose reductase activation is a key component of myocardial response to ischemia," Faseb J. 16, 243-245 and Ramasamy R, Hwang YC, Whang J , Bergmann SR (2001), "Protection of ischemic hearts by high glucose is mediated, in part, by GLUT-4," American Journal of Physiology. 281, H290-297.
Male Wistar rats (300.350 g, 3 to 4 months old) were anesthetized with a mixture of ketamine (80 mg/kg) and xylazine (10 mg/kg). After deep anesthesia was achieved, hearts were rapidly excised, placed into iced saline, and retrogradely perfused at 37 °C in a non-recirculating mode through the aorta at a rate of 12.5 ml/min. Hearts were perfused with modified Krebs-Henseleit buffer containing (in mM) NaCl 118, KCl 4.7, CaCl2 2.5, MgCl2 1.2, NaHCO3 25, glucose 5, palmitate 0.4, bovine serum albumin 0.4, and 70 mU/L insulin. […] Left ventricular developed pressure (LVDP) and left ventricular end diastolic pressure (LVEDP) were measured using a latex balloon in the left ventricle. LVDP, heart rate, and coronary perfusion pressure were monitored continuously on a ADI recorder. […]
Briefly, isolated perfused hearts were subjected to ischemia reperfusion (I/R) injury and the measures of cardiac injury and cardiac function monitored. […]

[5] = attempted concentration 0.05 mg/mL
[6] = attempted concentration 0.1 mg/mL
[7] = attempted concentration 0.5 mg/mL
[8] = attempted concentration 1 mg/mL
[9] = attempted concentration 5 mg/mL
[10] = attempted concentration 10 mg/mL

Row | SMILES | solubility in Krebs-Henseleit buffer [1] | solubility in pH 7.1 water relative to Zopolrestat ([2]; ambient temperature, all concentrations) | Area (Integration of Absorbance Peaks) [2, 5] | Area (Integration of Absorbance Peaks) [2, 6] | Area (Integration of Absorbance Peaks) [2, 7] | Area (Integration of Absorbance Peaks) [2, 8] | Area (Integration of Absorbance Peaks) [2, 9] | Area (Integration of Absorbance Peaks) [2, 10] | inhibition at 0.0001 µM [3] [%] | inhibition at 0.001 µM [3] [%] | inhibition at 0.01 µM [3] [%] | inhibition at 0.1 µM [3] [%] | inhibition at 1 µM [3] [%] | inhibition at 10 µM [3] [%] | inhibition at 100 µM [3] [%] | more active than zopolrestat in vitro against aldose reductase ([3]; fold relative to zopolrestat) | CK Release [4] | LVDP Recovery [4]
1 | O=C(O)Cc1nn(Cc2nc3cc(C(F)(F)F)ccc3s2)c(=O)c2nccnc12 [Compound A, 2-(8-oxo-7-((5-(trifluoromethyl)benzo[d]thiazol-2-yl)methyl)-7,8-dihydropyrazino[2,3-d]pyridazin-5-yl)acetic acid] | soluble without ay precipitation or turbidity | significantly greater solubility | 1811131 | 3221003 | 5814304 | 10515430 | 17216187 | 20397336 | 69 ± 1.3 | 79.6 ± 2.4 | 80 ± 1.8 | 89.2 ± 0.7 | 93.6 ± 2.8 | 95.3 ± 1.1 | 96.2 ± 3.3 | approximately 100 x | Compound A treated Rat hearts = 425±63 IU/g wet weight | Compound A Treated Rat Hearts = 76±5 % of pre-ischemic values
2 | O=C(O)Cc1nn(Cc2nc3cc(C(F)(F)F)ccc3s2)c(=O)c2ccccc12 [zopolrestat, reference compound] | heat was applied to render zopolrestat soluble |  | 1039247 | 1899466 | 4304556 | 6129559 | 13314544 | 13362465 | 31.7 ± 5.1 | 39.3 ± 4.3 | 52.2 ± 1.9 | 76.7 ± 2.7 | 86.3 ± 3.6 | 90.1 ± 3.4 | 93.2 ± 3.8 |  |  | 
